Experiment: mn = molality of the nth substance listed, in mol/kg
Details: 350 kPa, Liquid, Extra sensitive DSC

NCC(=O)O [2-aminoacetic acid] + O
apparent molar heat capacity [J/K/mol]
Details | m1 = 0.015 | m1 = 0.03 | m1 = 0.0503 | m1 = 0.0804 | m1 = 0.125 | m1 = 0.2493 | m1 = 0.5056
278.15 K | 8 | – | – | – | – | – | 4.4
283.15 K | 25 | 1 | – | 12.3 | 10.3 | 12.4 | 18.7
288.15 K | 38 | 14 | 11 | 25.5 | 23.6 | 25.3 | 30.5
293.15 K | 50 | 25 | 24 | 36.5 | 34.1 | 35.4 | 40.4
298.15 K | 59 | 33 | 34.8 | 45.4 | 42.9 | 44 | 48.3
303.15 K | 67 | 41 | 43.7 | 52.8 | 50.1 | 51.1 | 55.2
308.15 K | 73 | 48 | 51 | 59.1 | 55.8 | 57 | 60.9
313.15 K | 78 | 54 | 57.3 | 64.5 | 61.3 | 62.4 | 66
318.15 K | 83 | 59 | 62.2 | 68.8 | 65.7 | 66.8 | 70.2
323.15 K | 86 | 63 | 66.8 | 72.7 | 69.3 | 70.6 | 73.9
328.15 K | 90 | 67 | 70.8 | 76 | 72.6 | 73.8 | 77.1
333.15 K | 92 | 70 | 74.5 | 79 | 75.4 | 76.7 | 80
338.15 K | 95 | 73 | 78 | – | – | – | –
